Test results as given in patent EP0296264A1, “Aminopropanol derivatives of 3-(2-hydroxyphenyl)-1-propanone, process for their preparation and medicines containing these compounds” (Helopharm W. Petrik GmbH & Co.KG., priority 1987, dated 1988).
Where a name gives a salt, the structure may show the parent alone.

How the values were obtained:
[1] = Effect on contraction force of the heart, guinea pig papillary muscle (negative inotropy); type: cell-based, Meerschweinchen; conditions: concentration that reduces the contraction of the papillary muscle by 20 %, read-out: C20_CF
Text: Die Wirkung auf die Kontraktionskraft des Herzens wurde am Meerschweinchenpapillarmuskel untersucht. Hämodynamische Studien wurden bei gesunden, wie auch akut infarzierten Hunden durchgeführt.

[2] = tested on: Purkinje-Fasern aus Hundeherzen; assay: Electrophysiological study on Purkinje fibres from dog hearts (Vmax, conduction delay); type: cell-based, Hunde; conditions: Canis lupus familiaris, read-out: C20_Vmax
Text: Die antiarrhythmische Wirksamkeit der erfindungsgemäßen Verbindungen wurde sowohl anhand von elektrophysiologischen Studien an Purkinje-Fasern aus Hundeherzen sowie mit Hilfe von Ouabain-induzierten ventrikulären Tachykardien bei Hunden bestimmt. […]
Als zusätzliches Kriterium wurde der Vorzeitigkeitsindex (Prematurity-Faktor) bestimmt, der die erwünschte Wirksamkeit der erfindungsgemäßen Verbindungen bei frühzeitig einfallenden Extrasystolen charakterisiert.

Molecule `COc1cc(C(=O)CCc2ccccc2OCC(O)CNC2CCCCC2)cc(OC)c1OC` (stereo not drawn) [Beispiel 16, 1-(3,4,5-Trimethoxyphenyl)-3-[2ʹ-(2-hydroxy-3-cyclohexylamino-propoxy)-phenyl]-1-propanon-hydrochlorid] has an IC20 [1] of 9 µM and an IC20 [2] of 11.9 µM.

In the case of `CCC(CO)NCC(O)COc1ccccc1CCC(=O)c1ccc(OC)c(OC)c1` (stereo not drawn) [Beispiel 9, 1-(3,4-Dimethoxyphenyl)-3-[2ʹ-(2-hydroxy-3-(1ʺ-hydroxybut-2-ylamino)-propoxy)-phenyl]-1-propanon-oxalat], the IC20 [1] was 25 µM and the IC20 [2] was 10.2 µM.

In the case of `CCCNCC(O)COc1ccccc1CCC(=O)c1cccc(OC)c1` (stereo not drawn) [Beispiel 26, 1-(3-Methoxyphenyl)-3-[2ʹ-(2-hydroxy-3-n-propylamino-propoxy)-phenyl]-1-propanon-hydrochlorid], the IC20 [1] was 3 µM and the IC20 [2] was 1.7 µM.

Molecule `CCC(C)(C)NCC(O)COc1ccccc1CCC(=O)c1ccc(OC)c(OC)c1` (stereo not drawn) [Beispiel 2, 1-(3,4-Dimethoxyphenyl)-3-[2ʹ-(2-hydroxy-3-tert.-pentylamino-propoxy)-phenyl]-1-propanon-hydrochlorid] has an IC20 [1] of 8 µM and an IC20 [2] of 3.6 µM.

For `CC(C)(C)NCC(O)COc1ccccc1CCC(=O)c1ccccc1` (stereo not drawn) [Beispiel 48, 1-Phenyl-3-[2ʹ-(2-hydroxy-3-tert.-butylamino-propoxy)-phenyl]-1-propanon-hydrochlorid], the IC20 [1] was 3 µM and the IC20 [2] was 1 µM.

`COc1cccc(C(=O)CCc2ccccc2OCC(O)CNC(C)C)c1` (stereo not drawn) [Beispiel 24, 1-(3-Methoxyphenyl)-3-[2ʹ-(2-hydroxy-3-isopropylamino-propoxy)-phenyl]-1-propanon-hydrochlorid] gave an IC20 [1] of 10 µM and an IC20 [2] of 1.6 µM.

Molecule `COc1ccc(C(=O)CCc2ccccc2OCC(O)CNC(C)(C)C)cc1OC` (stereo not drawn) [Beispiel 5, 1-(3,4-Dimethoxyphenyl)-3-[2ʹ-(2-hydroxy-3-tert.-butylamino-propoxy)-phenyl]-1-propanon-hydrochlorid] has an IC20 [1] of 12 µM and an IC20 [2] of 4.4 µM.

Molecule `COc1ccc(C(=O)CCc2ccccc2OCC(O)CNC(C)C)cc1OC` (stereo not drawn) [Beispiel 4, 1-(3,4-Dimethoxyphenyl)-3-[2ʹ-(2-hydroxy-3-isopropylamino-propoxy)-phenyl]-1-propanon-hydrochlorid] has an IC20 [1] of 22 µM and an IC20 [2] of 4.8 µM.

Molecule `O=C(CCc1ccccc1OCC(O)CN1CCCCC1)c1ccccc1` (stereo not drawn) [Beispiel 47, 1-Phenyl-3-[2ʹ-(2-hydroxy-3-piperidino-propoxy)-phenyl]-1-propanon-hydrochlorid] has an IC20 [1] of 2 µM and an IC20 [2] of 0.3 µM.

`COc1ccc(C(=O)CCc2ccccc2OCC(O)CN2CCCCC2)cc1OC` (stereo not drawn) [Beispiel 6, 1-(3,4-Dimethoxyphenyl)-3-[2ʹ-(2-hydroxy-3-piperidino-propoxy)-phenyl]-1-propanon-hydrochlorid] showed an IC20 [1] of 20 µM and an IC20 [2] of 11.3 µM.

`Cc1ccc(C(=O)CCc2ccccc2OCC(O)CNC(C)(C)C)cc1` (stereo not drawn) [Beispiel 44, 1-(4-Methylphenyl)-3-[2ʹ-(2-hydroxy-3-tert.-butylamino-propoxy)-phenyl]-1-propanon-hydrochlorid] gave an IC20 [1] of 6 µM and an IC20 [2] of 2.6 µM.

With `COc1cc(C(=O)CCc2ccccc2OCC(O)CNC(C)C)cc(OC)c1OC` (stereo not drawn) [Beispiel 12, 1-(3,4,5-Trimethoxyphenyl)-3-[2ʹ-(2-hydroxy-3-isopropylamino-propoxy)-phenyl]-1-propanon-hydrochlorid] the IC20 [1] was 18 µM and the IC20 [2] was 5.8 µM.

For `COc1ccccc1C(=O)CCc1ccccc1OCC(O)CNC(C)(C)C` (stereo not drawn) [Beispiel 38, 1-(2-Methoxyphenyl)-3-[2ʹ-(2-hydroxy-3-tert.-butylamino-propoxy)-phenyl]-1-propanon-hydrochlorid], the IC20 [1] was 7 µM and the IC20 [2] was 1.7 µM.

`COc1ccc(C(=O)CCc2ccccc2OCC(O)CNCCO)cc1OC` (stereo not drawn) [Beispiel 8, 1-(3,4-Dimethoxyphenyl)-3-[2ʹ-(2-hydroxy-3-(2ʺ-hydroxyethylamino)-propoxy)-phenyl]-1-propanon-hydrochlorid] gave an IC20 [1] of 13 µM and an IC20 [2] of 8.3 µM.

`COc1cccc(C(=O)CCc2ccccc2OCC(O)CNC(C)(C)C)c1` (stereo not drawn) [Beispiel 27, 1-(3-Methoxyphenyl)-3-[2ʹ-(2-hydroxy-3-tert.-butylamino-propoxy)-phenyl]-1-propanon-hydrochlorid] showed an IC20 [1] of 4 µM and an IC20 [2] of 1.6 µM.

`CCCNCC(O)COc1ccccc1CCC(=O)c1ccc(OC)c(OC)c1` (stereo not drawn) [Beispiel 1, 1-(3,4-Dimethoxyphenyl)-3-[2ʹ-(2-hydroxy-3-n-propylamino-propoxy)-phenyl]-1-propanon-hydrochlorid] showed an IC20 [1] of 15 µM and an IC20 [2] of 12.5 µM.

Work on `O=C(CCc1ccccc1OCC(O)CNC1CCCCC1)c1ccccc1` (stereo not drawn) [Beispiel 46, 1-Phenyl-3-[2ʹ-(2-hydroxy-3-cyclohexylamino-propoxy)-phenyl]-1-propanon-hydrochlorid] yielded an IC20 [1] of 2 µM and an IC20 [2] of 2.2 µM.

With `COc1ccc(C(=O)CCc2ccccc2OCC(O)CNCC(C)O)cc1OC` (stereo not drawn) [Beispiel 7, 1-(3,4-Dimethoxyphenyl)-3-[2ʹ-(2-hydroxy-3-(2ʺ-hydroxypropylamino)-propoxy)-phenyl]-1-propanon-hydrochlorid] the IC20 [1] was 18 µM and the IC20 [2] was 5.7 µM.
